Usually MIC stands for the smallest concentration in the dilution series that meets the test's criterion for growth inhibition. Low values mean inhibition by little substance, high ones a need for much substance.

Converted amounts (≈) assume the structure as drawn.

The values below come from DBAASP.

Test systems include Escherichia coli D31; Candida parapsilosis; Bacillus subtilis DELTA; Pseudomonas putida; Pseudomonas fluorescens; Escherichia coli C600.
Common to all, as to experiment: ≥ marks a high value that may be exact or a test limit, other limits are often not marked, values filed in µg/mL are converted to µM
Assay [1] relates to Staphylococcus aureus ATCC 27660.
For assay [2], the system named is Salmonella enterica subsp. enterica serovar Typhimurium ATCC 700931.
Assay [3] has as its system Pseudomonas aeruginosa ATCC 10145.
Assay [4] relates to Staphylococcus epidermidis ATCC 14990.
The test system of assay [5] is Escherichia coli DH5alpha.
Assay [6] relates to Pseudomonas aeruginosa PAO1.
Assay [7] has as its system Zymomonas mobilis ATCC 10988.
Assay [8] relates to Streptococcus sanguinis ATCC 10556.
Assay [9] has as its system Streptococcus sobrinus ATCC 6715.
Assay [10] concerns Streptococcus mutans UA159.
Assay [11] deals with Enterobacter cloacae AB2010162.
Assay [12] has as its system Micrococcus luteus AB2010179.
The subject of assay [13] is Bacillus magaterium AB90008.
Assay [14] relates to Salmonella enterica AB2010185.
For assay [15], the system named is Staphylococcus aureus AB94004.
In assay [16] the test system is Bacillus cereus ATCC 11778.
Assay [17] relates to Salmonella enterica subsp. enterica serovar Typhimurium ATCC 14028.
The test system of assay [18] is Klebsiella aerogenes ATCC 13048.
Assay [19] deals with Staphylococcus aureus ATCC 29213.
Assay [20] relates to Escherichia coli ATCC 25922.
Assay [21] concerns Escherichia coli NBRC 3972.
In assay [22] the test system is Pseudomonas aeruginosa NBRC 13275.
Assay [23] relates to Staphylococcus aureus NBRC 13276.
Assay [24] relates to Staphylococcus aureus 209P.

Turning to `CC(C)C[C@H](NC(=O)[C@H](C)N)C(=O)N[C@@H](Cc1c[nH]c2ccccc12)C(=O)N[C@@H](CCCCN)C(=O)N[C@@H](CCCCN)C(=O)N[C@@H](CC(C)C)C(=O)N[C@@H](CC(C)C)C(=O)N[C@@H](CCCCN)C(=O)N[C@@H](CCCCN)C(=O)N[C@@H](CC(C)C)C(=O)N[C@@H](CC(C)C)C(=O)N[C@@H](CCCCN)C(=O)N[C@@H](CO)C(=O)N[C@@H](C)C(=O)N[C@@H](CCCCN)C(=O)N[C@@H](CCCCN)C(=O)N[C@@H](CC(C)C)C(=O)NCC(=O)O` [ALWKKLLKKLLKSAKKLG], the MIC turned out to be 1.88 µM (≈ 3.89 µg/mL) in assay [1]; 1.88 µM (≈ 3.89 µg/mL) in [2]; 1.88 µM (≈ 3.89 µg/mL) in assay [3]; 0.94 µM (≈ 1.94 µg/mL) in assay [4]; 0.94 µM (≈ 1.94 µg/mL) in the assay on Escherichia coli D31.
In the case of `CC(C)[C@H](NC(=O)[C@H](C)N)C(=O)N[C@@H](Cc1c[nH]c2ccccc12)C(=O)N[C@@H](CCCCN)C(=O)N[C@@H](CCCCN)C(=O)N[C@H](C(=O)N[C@H](C(=O)N[C@@H](CCCCN)C(=O)N[C@@H](CCCCN)C(=O)N[C@H](C(=O)N[C@H](C(=O)N[C@@H](CCCCN)C(=O)N[C@@H](CO)C(=O)N[C@@H](C)C(=O)N[C@@H](CCCCN)C(=O)N[C@@H](CCCCN)C(=O)N[C@H](C(=O)NCC(=O)O)C(C)C)C(C)C)C(C)C)C(C)C)C(C)C` [AVWKKVVKKVVKSAKKVG], the MIC in [1] was found to be 7.5 µM (≈ 14.9 µg/mL); in assay [2] it was 7.5 µM (≈ 14.9 µg/mL); in [3], 7.5 µM (≈ 14.9 µg/mL); in assay [4] it was 7.5 µM (≈ 14.9 µg/mL); in the assay on Escherichia coli D31, 3.75 µM (≈ 7.43 µg/mL).
Take `CC[C@H](C)[C@H](NC(=O)[C@H](CCCN=C(N)N)NC(=O)[C@H](CCCCN)NC(=O)[C@H](Cc1ccccc1)NC(C)=O)C(=O)N[C@H](C(=O)N[C@@H](CCC(N)=O)C(=O)N[C@@H](CC(C)C)C(=O)N[C@@H](CC(C)C)C(=O)N[C@@H](CCCCN)C(=O)N[C@@H](CCCCN)C(=O)N[C@@H](CC(C)C)C(=O)N[C@@H](CC(C)C)C(=O)N[C@@H](CCCN=C(N)N)C(N)=O)C(C)C` [FKRIVQLLKKLLR]: the MIC is at least 60.4 µM in assay [5]; 1.81 µM (≈ 3.07 µg/mL) in assay [6]; 3.02 µM (≈ 5.12 µg/mL) in assay [7]; 24.2 µM (≈ 41 µg/mL) against Candida parapsilosis; 6.04 µM (≈ 10.2 µg/mL) in the assay on Bacillus subtilis DELTA.
Take `CC(C)[C@H](NC(=O)[C@H](CCCCN)NC(=O)[C@H](C)NC(=O)[C@H](C)NC(=O)[C@H](CCCCN)NC(=O)[C@H](CCCCN)NC(=O)[C@H](Cc1ccccc1)NC(=O)[C@H](Cc1ccccc1)NC(=O)[C@H](CCCCN)NC(=O)CNC(=O)[C@H](Cc1c[nH]c2ccccc12)NC(=O)CN)C(=O)NCC(=O)N[C@@H](CCCCN)C(=O)N[C@@H](CCCCN)C(=O)N[C@H](C(=O)NCC(=O)O)C(C)C` [GWGKFFKKAAKVGKKVG]: the MIC in assay [8], in assay [9] and in assay [10] was at least 279 µM each time.
Take `NCCCC[C@H](NC(=O)CNC(=O)[C@H](Cc1ccccc1)NC(=O)[C@H](CCCCN)NC(=O)[C@H](Cc1ccccc1)NC(=O)[C@H](Cc1ccccc1)NC(=O)[C@H](CCCCN)NC(=O)[C@H](CCCCN)NC(=O)[C@H](Cc1ccccc1)NC(=O)[C@H](Cc1ccccc1)NC(=O)[C@H](CCCCN)NC(=O)CNC(=O)[C@H](Cc1c[nH]c2ccccc12)NC(=O)CN)C(=O)O` [GWGKFFKKFFKFGK]: the minimum inhibitory concentration (MIC) in assay [8], in assay [9] and in [10] was 9.13 µM (≈ 16 µg/mL) each time.
Take `CC[C@H](C)[C@H](N)C(=O)N[C@@H](CC(C)C)C(=O)NCC(=O)N[C@@H](CCCCN)C(=O)N[C@H](C(=O)N[C@@H](Cc1c[nH]c2ccccc12)C(=O)N[C@@H](CCCCN)C(=O)NCC(=O)N[C@H](C(=O)N[C@@H](CCCCN)C(=O)N[C@@H](CC(N)=O)C(=O)N[C@H](C(=O)N[C@@H](CC(C)C)C(N)=O)[C@@H](C)CC)[C@@H](C)CC)[C@@H](C)CC` [ILGKIWKGIKNIL]: the MIC in the assay on Pseudomonas putida is 16 µM (≈ 23.9 µg/mL); in assay [11], at least 82 µM; in assay [12], 2 µM (≈ 2.99 µg/mL); in assay [5] it was at least 82 µM; in assay [13], at least 50 µM; in assay [14] it was at least 35 µM. The MIC with Pseudomonas fluorescens is at least 32 µM; in assay [15], 12 µM (≈ 17.9 µg/mL).
As for `CC[C@H](C)[C@H](N)C(=O)N[C@@H](CC(C)C)C(=O)NCC(=O)N[C@@H](CCCCN)C(=O)N[C@H](C(=O)N[C@@H](Cc1c[nH]c2ccccc12)C(=O)N[C@@H](CCC(=O)O)C(=O)NCC(=O)N[C@H](C(=O)N[C@@H](CCCCN)C(=O)N[C@@H](CO)C(=O)N[C@@H](CC(C)C)C(=O)N[C@@H](Cc1ccccc1)C(N)=O)C(C)C)C(C)C` [ILGKVWEGVKSLF], the MIC in [16] is at least 67.8 µM; in [17] it was above 67.8 µM; in assay [18], at least 67.8 µM; in [19] it was above 67.8 µM; in assay [20] it was above 67.8 µM.
For `CC(=O)N[C@@H](CCCCN)C(=O)N[C@@H](CCCCN)C(=O)NCC(=O)N[C@@H](CCCCN)C(=O)N[C@@H](CCCCN)C(=O)NCC(=O)N[C@@H](CCCCN)C(=O)N[C@@H](CCCCN)C(=O)NCC(N)=O` [KKGKKGKKG], the MIC in [21], in assay [22] and in assay [23] was at least 800 µM each time.
As to `CC[C@H](C)[C@H](NC(=O)[C@H](Cc1ccccc1)NC(=O)[C@H](CCCCN)NC(=O)[C@H](CC(C)C)NC(=O)[C@H](CC(C)C)NC(=O)[C@@H](N)CCCCN)C(=O)N[C@@H](CCCCN)C(=O)N[C@@H](CCCCN)C(=O)N[C@@H](CC(C)C)C(=O)N[C@@H](CC(C)C)C(N)=O` [KLLKFIKKLL], the MIC was at least 322 µM in assay [5], 8.04 µM (≈ 9.99 µg/mL) in assay [7], 24.1 µM (≈ 30 µg/mL) with Candida parapsilosis and at least 32.2 µM in the assay on Bacillus subtilis DELTA.
With `CC(C)[C@@H]1NC(=O)CNC(=O)[C@H](CCCN=C(N)N)NC(=O)[C@H](CCCN=C(N)N)NC(=O)[C@H](CCCN=C(N)N)NC(=O)[C@H](C)NC(=O)[C@H](Cc2ccc(O)cc2)NC(=O)[C@H](C(C)C)NC(=O)[C@@H](NC(=O)[C@H](Cc2c[nH]c3ccccc23)NC(=O)[C@@H](N)CCCN=C(N)N)CSSC[C@@H](C(=O)N[C@@H](Cc2c[nH]c3ccccc23)C(=O)O)NC(=O)[C@H](CCCN=C(N)N)NC(=O)[C@H](CCCN=C(N)N)NC(=O)[C@H](Cc2ccc(O)cc2)NC(=O)[C@H](CCCN=C(N)N)NC1=O` [RWCVYARRRGVRYRRCW], the values for the MIC (in assay [24]; in assay [6]; against Escherichia coli C600) were 3.13 µM (≈ 7.33 µg/mL), 50 µM (≈ 117 µg/mL) and 3.13 µM (≈ 7.33 µg/mL), respectively.
